Data published in patent US20220372014A1, “NEUROPROTECTIVE COMPOUNDS AND METHODS OF USE THEREOF” (The Johns Hopkins University, priority 2019, published 2022).

Experiments:
MIF = molecular target: T1, MIF (Homo sapiens, UniProt P14174); test: Nuclease assay of Example 3 (MIF inhibitory activity, Table 4); type: biochemical; set-up: (%) inhibition of MIF nuclease activity: concentration or dose not given beside the values; conditions: for (%) inhibition of MIF nuclease activity: nuclease assay of Example 3
T1 sequence (P14174 1-115): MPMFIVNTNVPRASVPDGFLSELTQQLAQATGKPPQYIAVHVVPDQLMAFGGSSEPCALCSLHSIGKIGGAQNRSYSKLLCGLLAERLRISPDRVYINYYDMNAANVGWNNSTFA
In short: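 Human genomic DNA (200 ng), pcDNA (200 ng) or PS^30-type substrates (1 μM) were incubated with MIF (0.25-8 μM final) in 10 mM Tris-HCl pH 7.0, 10 mM MgCl2, 1 mM DTT at 37 °C for 1 h (pcDNA, small substrates) or 4 h (genomic DNA). Cleavage was assessed by agarose or PAGE electrophoresis with EtBr staining and chemiluminescent detection of biotin-labelled DNA.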

[1] = tested on: HeLa cells or neuronal cells; test: Cell death assay of Example 3 (MNNG, alamarBlue; protection against parthanatos, Table 4); type: cell-based; conditions: 1 μM test compound; for (%) inhibition of cell death: MNNG-induced cell death, alamarBlue
In short: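 HeLa or neuronal cells (1×10^4/well) were pretreated 1 h at 37° C with 1 μM compound, exposed to MNNG for 15 min, washed, then re-incubated 18 h with 1 μM compound. Viability was read by alamarBlue fluorescence (ex 560/em 590 nm). Cell death was expressed relative to control wells.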

Compound | (%) inhibition of MIF nuclease activity (MIF) [%] | (%) inhibition of cell death [1] [%] | MIF nuclease activity (MIF) | protection against parthanatos (cell death) [1]
COc1ccc(CC[C@H]2OC(=O)[C@@H]3CCCCN3C(=O)C(=O)C(C)(C)COC(=O)C=CCCN(C)C(=O)[C@H](CC3CCCCC3)NC(=O)[C@H](COC(C)(C)C)N(C)C(=O)C(c3ccccc3)NC(=O)CN(C)C(=O)COc3cccc2c3)cc1OC (stereo partly shown) [compound 42] | 40.8 | 53.2 |  | 
COc1ccc(CC[C@H]2OC(=O)[C@@H]3CCCCN3C(=O)C(=O)C(C)(C)COC(=O)C=CCCN(C)C(=O)[C@@H](CC(C)C)NC(=O)[C@H](COC(C)(C)C)N(C)C(=O)[C@@H](CC(C)C)NC(=O)CN(C)C(=O)COc3cccc2c3)cc1OC [compound 7] | 30.1 | 54.5 |  | 
COc1ccc(CC[C@H]2OC(=O)[C@@H]3CCCCN3C(=O)C(=O)C(C)(C)COC(=O)C=CCCN(C)C(=O)[C@@H]3CCCN3C(=O)[C@H](COC(C)(C)C)N(C)C(=O)C(c3ccccc3)NC(=O)[C@H](C)N(C)C(=O)COc3cccc2c3)c(F)c1OC (stereo partly shown) [compound 117] | −5.1 | 51.8 |  | 
COc1ccc(CC[C@H]2OC(=O)[C@@H]3CCCCN3C(=O)C(=O)C(C)(C)COC(=O)C=CCCN(C)C(=O)[C@H](C(C)C)NC(=O)[C@H](Cc3ccccc3)N(C)C(=O)[C@@H](C)NC(=O)CN(C)C(=O)COc3cccc2c3)cc1OC [compound 74] | 31.5 | 52.6 |  | 
COc1ccc(CC[C@H]2OC(=O)[C@@H]3CCCCN3C(=O)C(=O)C(C)(C)COC(=O)C=CCCN(C)C(=O)[C@@H](C)NC(=O)[C@H](COC(C)(C)C)N(C)C(=O)[C@H](Cc3ccc4ccccc4c3)NC(=O)[C@H](C)N(C)C(=O)COc3cccc2c3)cc1OC [compound 18] | 65.0 | 78.4 |  | 
CCC[C@@H]1NC(=O)[C@H](COC(C)(C)C)N(C)C(=O)[C@@H](CC(C)C)NC(=O)CN(C)C(=O)COc2cccc(c2)[C@@H](CCc2ccc(OC)c(OC)c2)OC(=O)[C@@H]2CCCCN2C(=O)C(=O)C(C)(C)COC(=O)C=CCCN(C)C1=O [compound 4] | 10.8 | 39.7 |  | 
COCC[C@@H]1NC(=O)[C@H](COC(C)(C)C)N(C)C(=O)C(c2ccccc2)NC(=O)CN(C)C(=O)COc2cccc(c2)[C@@H](CCc2ccc(OC)c(OC)c2)OC(=O)[C@@H]2CCCCN2C(=O)C(=O)C(C)(C)COC(=O)C=CCCN(C)C1=O (stereo partly shown) [compound 35] | 21.5 | 56.3 |  | 
COc1ccc(CC[C@H]2OC(=O)[C@@H]3CCCCN3C(=O)C(=O)C(C)(C)COC(=O)C=CCCN(C)C(=O)[C@H](CC(C)C)NC(=O)[C@H](COC(C)(C)C)N(C)C(=O)[C@H](Cc3ccc4ccccc4c3)NC(=O)[C@H](C)N(C)C(=O)COc3cccc2c3)cc1OC [compound 21] | 57.9 | 61.0 |  | 
COc1ccc(CC[C@H]2OC(=O)[C@@H]3CCCCN3C(=O)C(=O)C(C)(C)COC(=O)C=CCCN(C)C(=O)[C@H](Cc3ccc4ccccc4c3)NC(=O)[C@H](COC(C)(C)C)N(C)C(=O)[C@@H](CC(C)C)NC(=O)CN(C)C(=O)COc3cccc2c3)cc1OC [compound 13] | 21.9 | 46.7 |  | 
COc1ccc(CC[C@H]2OC(=O)[C@@H]3CCCCN3C(=O)C(=O)C(C)(C)COC(=O)C=CCCN(C)C(=O)[C@H](C(C)C)NC(=O)[C@H](COC(C)(C)C)N(C)C(=O)[C@@H](CC(C)C)NC(=O)CN(C)C(=O)COc3cccc2c3)cc1OC [compound 14] | 11.2 | 41.6 |  | 
COc1ccc(CC[C@H]2OC(=O)[C@@H]3CCCCN3C(=O)C(=O)C(C)(C)COC(=O)C=CCCN(C)C(=O)[C@@H]3CCCN3C(=O)[C@H](COC(C)(C)C)N(C)C(=O)C(c3ccccc3)NC(=O)[C@H](C)N(C)C(=O)COc3cc2ccc3F)cc1OC (stereo partly shown) [compound 114] | −2.4 | 44.9 |  | 
COc1ccc(CC[C@H]2OC(=O)[C@@H]3CCCCN3C(=O)C(=O)C(C)(C)COC(=O)C=CCCN(C)C(=O)[C@H](CC(C)C)NC(=O)[C@H](Cc3ccccc3)N(C)C(=O)[C@@H](C)NC(=O)CN(C)C(=O)COc3cccc2c3)cc1OC [compound 66] | 67.0 | 71.4 |  | 
COc1ccc(CC[C@H]2OC(=O)[C@@H]3CCCCN3C(=O)C(=O)C(C)(C)COC(=O)C=CCCN(C)C(=O)[C@H](Cc3ccccc3)NC(=O)[C@H](COC(C)(C)C)N(C)C(=O)[C@H](Cc3ccc4ccccc4c3)NC(=O)[C@H](C)N(C)C(=O)COc3cccc2c3)cc1OC [compound 23] | 45.7 | 58.7 |  | 
COc1cc(CC[C@H]2OC(=O)[C@@H]3CCCCN3C(=O)C(=O)C(C)(C)COC(=O)C=CCCN(C)C(=O)[C@@H]3CCCN3C(=O)[C@H](COC(C)(C)C)N(C)C(=O)C(c3ccccc3)NC(=O)[C@H](C)N(C)C(=O)COc3cccc2c3)cc(OC)c1OC (stereo partly shown) [compound 115] | 8.7 | 47.9 |  | 
COc1ccc(CC[C@H]2OC(=O)[C@@H]3CN(C(=O)OCC4c5ccccc5-c5ccccc54)CCN3C(=O)C(=O)C(C)(C)COC(=O)C=CCCN(C)C(=O)[C@@H]3CCCN3C(=O)[C@H](COC(C)(C)C)N(C)C(=O)C(c3ccccc3)NC(=O)[C@H](C)N(C)C(=O)COc3cccc2c3)cc1OC (stereo partly shown) [compound 127] | 5.0 | 46.4 |  | 
COCC[C@@H]1NC(=O)[C@H](C(C)C)N(C)C(=O)[C@@H](Cc2ccccc2)NC(=O)[C@H](CC(C)C)N(C)C(=O)CCC(=O)Nc2cccc(c2)[C@@H](CCc2ccc(OC)c(OC)c2)OC(=O)[C@@H]2CCCCN2C(=O)C(=O)C(C)(C)COC(=O)C=CCCN(C)C1=O [compound 80] | 10.3 | 49.5 |  | 
COc1ccc(CC[C@H]2OC(=O)[C@@H]3CCCCN3C(=O)C(=O)C(C)(C)COC(=O)C=CCCN(C)C(=O)[C@H](C(C)C)NC(=O)[C@H](COC(C)(C)C)N(C)C(=O)C(c3ccccc3)NC(=O)CN(C)C(=O)COc3cccc2c3)cc1OC (stereo partly shown) [compound 44] | 30.0 | 52.2 |  | 
COc1ccc(CC[C@H]2OC(=O)[C@@H]3CCCCN3C(=O)C(=O)C(C)(C)COC(=O)C=CCCN(C)C(=O)C(c3ccccc3)NC(=O)[C@H](COC(C)(C)C)N(C)C(=O)[C@@H](CC(C)C)NC(=O)CN(C)C(=O)COc3cccc2c3)cc1OC (stereo partly shown) [compound 15] | 8.7 | 53.4 |  | 
COc1ccc(CC[C@H]2OC(=O)[C@@H]3CCCCN3C(=O)C(=O)C(C)(C)COC(=O)C=CCCN(C)C(=O)[C@@H]3CCCN3C(=O)[C@H](COC(C)(C)C)N(C)C(=O)[C@H](Cc3ccc4ccccc4c3)NC(=O)[C@H](C)N(C)C(=O)COc3cccc2c3)cc1OC [compound 26] | 64.9 | 71.2 |  | 
COc1ccc(CC[C@H]2OC(=O)[C@@H]3CCCCN3C(=O)C(=O)C(C)(C)COC(=O)C=CCCN(C)C(=O)[C@@H]3CC(O)CN3C(=O)[C@H](COC(C)(C)C)N(C)C(=O)C(c3ccccc3)NC(=O)[C@H](C)N(C)C(=O)COc3cccc2c3)cc1OC (stereo partly shown) [compound 93] | 14.6 | 66.8 |  | 
COc1ccc(CC[C@H]2OC(=O)[C@@H]3CCCCN3C(=O)C(=O)C(C)(C)COC(=O)C=CCCN(C)C(=O)[C@H](C)N(C)C(=O)[C@H](COC(C)(C)C)N(C)C(=O)C(c3ccccc3)NC(=O)[C@H](C)N(C)C(=O)COc3cccc2c3)cc1OC (stereo partly shown) [compound 94] | 12.0 | 12.1 |  | 
COc1ccc(CC[C@H]2OC(=O)[C@@H]3CCCCN3C(=O)C(=O)C(C)(C)COC(=O)C=CCCN(C)C(=O)[C@@H](CC(C)C)NC(=O)[C@H](COC(C)(C)C)N(C)C(=O)C(c3ccccc3)NC(=O)CN(C)C(=O)COc3cccc2c3)cc1OC (stereo partly shown) [compound 37] | 18.0 | 59.6 |  | 
COc1ccc(CC[C@H]2OC(=O)[C@@H]3CCCCN3C(=O)C(=O)C(C)(C)COC(=O)C=CCCN(C)C(=O)[C@@H](Cc3ccccc3)NC(=O)[C@H](C(C)C)N(C)C(=O)[C@@H](Cc3ccccc3)NC(=O)[C@H](CC(C)C)N(C)C(=O)CCC(=O)Nc3cccc2c3)cc1OC [compound 84] | 10.8 | 51.0 |  | 
COCC[C@@H]1NC(=O)[C@H](COC(C)(C)C)N(C)C(=O)[C@@H](CC(C)C)NC(=O)CN(C)C(=O)COc2cccc(c2)[C@@H](CCc2ccc(OC)c(OC)c2)OC(=O)[C@@H]2CCCCN2C(=O)C(=O)C(C)(C)COC(=O)C=CCCN(C)C1=O [compound 5] | 10.7 | 41.7 |  | 
COc1ccc(CC[C@H]2OC(=O)[C@@H]3CCCCN3C(=O)C(=O)C(C)(C)COC(=O)C=CCCN(C)C(=O)[C@@H]3CCCCN3C(=O)[C@H](COC(C)(C)C)N(C)C(=O)C(c3ccccc3)NC(=O)[C@H](C)N(C)C(=O)COc3cccc2c3)cc1OC (stereo partly shown) [compound 92] | 9.0 | 72.1 | do not inhibit MIF nuclease activity | protect against parthanatos
